Test results: patent publication US11352354B2, “Substituted penta-fused hexa-heterocyclic compounds, preparation method therefor, drug combination and use thereof” (Xiamen University, priority 2017, dated 2022)

Legend:
[1] = tested on: MDA-MB-231 cells; assay: Vacuolation of MDA-MB-231 cells caused by inhibition of compounds on PIKfyve (microscopy); format: cell-based; conditions: MDA-MB-231 cells
Text: I. Determination of Vacuolation of MDA-MB-231 Cells Caused by Inhibition of Compounds on PIKfyve
When the activity of pikfyve kinase is inhibited, vacuoles will be produced in cytoplasm. By observing the number of vacuoles under a microscope, the ability of compounds to inhibit the activity of pikfyve kinase can be known.
1. Cell plating: cells in logarithmic growth phase were made into a single cell suspension, counted with a cell counter and diluted to a cell concentration of about 2×10^5/mL. Then, the cells were inoculated into a 12-well plate, and cultured in a 37° C., 5% CO2 incubator.
3. Vacuolation test: after 24 and 48 hours of culture, photos were taken under an […] to observe the degree of vacuolation.
(In the table, “+” represents the degree of vacuolation; more “+” indicates more obvious vacuolation; “−” represents no vacuolation)

[2] = tested on: JeKo-1 cells; assay: Tumor cell growth inhibition by MTS method, JeKo-1; format: cell-based; conditions: Homo sapiens, JeKo-1, 120 h, 5 days of culture; for inhibition at 10 µM: read-out: cell growth inhibition rate of compounds at 10 μM
Protocol: III. Determination of IC50 Value of Compound for Inhibiting Tumor Cell Growth by MTS Method
1. Cell plating: cells in logarithmic growth phase were counted and inoculated in a 96-well plate (20000 cells per well).
2. Administrating agent to cell: 10 mM compound mother solution in DMSO was subjected to 3 fold-gradient dilution, to set 8 concentrations, which were then added to various wells, with three replicates for each concentration, and three blank wells (only culture medium) and three negative controls (containing 0.1% DMSO) on each plate.
3. […] The OD value at 490 nm was measured with microplate reader OD490. The cell growth inhibition rate was calculated by the following formula: Cell growth inhibition rate %=1−(ODexperimental group−ODblank group)/(ODnegative group−ODblank group)×100%
The semi-inhibitory concentration IC50 of the compound acting on cell growth was calculated using GradPad Prism 5 software according to the measured cell growth inhibition rate.
In the following table it lists the IC50 value or the inhibition rates of some compounds at 10 μM against JeKo-1 cells

Structure (SMILES) | degree of vacuolation, 1 μM, 24 h [1] | degree of vacuolation, 1 μM, 48 h [1] | degree of vacuolation, 10 μM, 24 h [1] | degree of vacuolation, 10 μM, 48 h [1] | IC50 [2] | inhibition at 10 µM [2]
Cc1ccc(C(=O)Nc2cccc(C(F)(F)F)c2)cc1Nc1cc(-c2cccnc2)nc2[nH]ccc12 [I-a-20] | +++ | +++ | ++++ | ++++ | 2.54 µM | 
Cc1ccc(C(=O)Nc2ccc(CN3CCN(C)CC3)c(C(F)(F)F)c2)cc1Nc1cc(-c2ccncc2)nc2[nH]ccc12 [I-a-25] | + | + | + | + | 2.13 µM | 
Cc1ccc(C(=O)Nc2cccc(C(F)(F)F)c2)cc1Nc1nc(-c2cccnc2)c2cnn(C)c2n1 [III-c-1] |  |  |  |  | 2 µM | 
COc1ccc(Br)cc1NC(=S)Nc1cccc(-c2nc(NCc3cccnc3)c3c(ccn3C)n2)c1 [V-b-30] | − | − | + | + |  | 
Nc1ccc(NC(=O)c2cccc(Nc3nc(-c4cccnc4)c4[nH]ccc4n3)c2)cc1 [V-c-3] | + | + | ++ | ++ |  | 
Cc1cc(NC(=O)c2ccccc2N)ccc1Nc1nc(-c2cccnc2)c2[nH]ccc2n1 [V-c-25] | − | − | − | − |  | 
Cc1cc(NS(=O)(=O)c2ccccc2)ccc1Nc1nc(-c2cccnc2)c2[nH]ccc2n1 [V-c-35] | − | − | + | + |  | 
Cc1ccc(NC(=O)c2cccc(C(F)(F)F)c2)cc1Nc1nc(-c2cccnc2)cn2ccnc12 [VI-a-1] |  |  |  |  | 7.49 µM | 
Cc1ccc(NC(=O)c2cccc(C(F)(F)F)c2)cc1Nc1nc(-c2cccnc2)cn2ccnc12 [VI-a-5] | − | + | − | + |  | 
Cc1ccc(C(=O)Nc2ccc(CN3CCN(C)CC3)c(C(F)(F)F)c2)cc1Nc1nc(-c2ccncc2)cn2ccnc12 [VI-a-8] |  | − |  | − |  | 
Cc1ccc(NC(=O)c2cccc(C(F)(F)F)c2)cc1Nc1nc(-c2cccnc2)cn2c(Br)cnc12 [VI-b-1] |  |  |  |  |  | 17.5%
Cc1ccc(C(=O)Nc2cccc(C(F)(F)F)c2)cc1Nc1nc(-c2cccnc2)cn2c(Br)cnc12 [VI-b-2] |  |  |  |  |  | 14.7%
Cc1ccc(C(=O)Nc2cccc(OC(F)(F)F)c2)cc1Nc1nc(-c2cccnc2)cn2c(Br)cnc12 [VI-b-4] | − | − | + | + |  | 
Cc1ccc(C(=O)Nc2cccc(F)c2)cc1Nc1nc(-c2cccnc2)cn2c(Br)cnc12 [VI-b-5] |  |  |  |  |  | 16.9%
Cc1ccc(NC(=O)c2ccc(CN3CCOCC3)c(C(F)(F)F)c2)cc1Nc1nc(-c2cccnc2)cn2c(Br)cnc12 [VI-b-6] | − | − | − | − |  | 
